Measurements reported in patent US20050036993A1, “Immune activation by double-stranded polynucleotides” (priority 1998, published 2005).

What was measured:
[1] = tested on: MHC Class I, TAP-1, LMP2, MHC Class II, invariant chain, HLA-DM, 90K tumor-associated immunostimulator; experiment: Drug suppression of ds polynucleotide-induced MHC and antigen-presenting gene expression in FRTL-5 cells (Northern); format: cell-based, rat; conditions: for ability of dsDNA to increase MHC Class I, TAP-1, LMP2, MHC Class II, invariant chain, HLA-DM, and 90K gene expression / ability of dsRNA to increase MHC Class I, TAP-1, LMP2, MHC Class II, invariant chain, HLA-DM, and 90K gene expression: FRTL-5 cells with TSH (6H5) or without TSH (5H5), 48 hours pretreatment, compound 10 0.5 mM, MMI 5 mM; for ability of dsDNA to increase MHC Class I, TAP-1, LMP2, MHC Class II, invariant chain, HLA-DM, and 90K gene expression: 2-mercaptoimidazole 5 mM, 5 ug dsDNA; for ability of dsRNA to increase MHC Class I, TAP-1, LMP2, MHC Class II, invariant chain, HLA-DM, and 90K gene expression: 5 ug dsRNA; for dsDNA or dsRNA transfection efficiency: FRTL-5 cells, drug-treated
[2] = tested on: HUVEC cells; experiment: Drug suppression of ds DNA or RNA effect in endothelia (HUVEC) cells; format: cell-based, human
Text: (§1) In this experiment (FIG. 6), cells were pretreated with MMI and compound 10 for 2 days before tranfection. […] The effect was therefore not thyroid cell restricted.

[3] = tested on: mouse dendritic cells; experiment: Drug suppression of ds DNA or RNA effect in mouse dendritic cells; format: cell-based
Text: as §1

[4] = tested on: human fibroblasts; experiment: Drug suppression of ds DNA or RNA effect in human fibroblasts; format: cell-based
Text: as §1

[5] = tested on: FRTL-5 rat thyroid cells; experiment: DNA staining and cell cycle analysis (FACS) of FRTL-5 cells; format: cell-based; conditions: for cell cycle arrest: 5H medium 6 days then 6H medium (TSH 1×10^−10M), 5 mM methimazole or 0.5 mM compound 10; for percentage of cells in S + G2/M phase: Methimazole 5 mM, Compound 10 0.5 mM; for action of the ds nucleic acids on cell cycle progression: Table 2 experiment, 4H medium; for effect of ds nucleic acids on growth: summary statement
Protocol: Cells were diploid and between their 5th and 25th passage. Fresh medium was added every 2 or 3 days and cells were passaged every 7-10 days. In some experiments, as noted, cells were grown to near confluency in 6H medium then maintained in 5H medium (which contains no TSH) or 4H medium (with no TSH and no insulin) for 6-8 days before experiments were initiated. Treatment with 5H or 4H medium synchronizes the cells by piling them up in G0/G1 (A. Hirai, et al., J. Biol. Chem. 272: 13-16 (1997); Y. Noguchi, et al., J. Biol. Chem. 273: 3649-3653 (1998)).
DNA Staining and Cell Cycle Analysis—The procedure used was a modification of that described (P. Smerdely, et al., Endocrinology 133: 2403-2406 (1993)). It used the Cycle TEST PLUS DNA Reagent Kit (Becton Dickinson, San Jose, Calif.); and FACS analysis was performed according to the manufacturer's instructions. Briefly, 5×10^5 cells were incubated with 250 T1 of Solution A (trypsin buffer) for 10 min at room temperature, then 200 T1 of Solution B (trypsin inhibitor and ribonuclease A buffer) was added and further incubated for 10 min. Cold Solution C (propidium iodide stain solution) was added and incubated for 10 min at 4° C. in the dark. FACS analysis was performed using FACScan (Becton Dickinson, San Jose, Calif.). Each analysis was performed in triplicate on cells from 3 different plates; the histogram had at least 10,000 events and a coefficient of variation less than 5%.
In the experiment above, there was a minimal direct methimazole effect on the cell cycle because the cells were maintained in 4H medium without insulin; methimazole action requires insulin (O. Isozaki, et al., Mol. Endocrinol, 3: 1681-1692 (1989); O. Isozaki, et al., Endocrinology 128: 3113-3121 (1991)). […] In this experiment, FRTL-5 cells were grown to near confluency in 6H medium, then shifted to 5H medium without TSH for 6 days. The experiments were initiated by returning the cells to 6H medium to reinitiate the cell cycle. Cells were treated with 5 mM methimazole and transfected or not with dsDNA or dsRNA. After 36 hours they were subjected to cell cycle analysis. […] In this experiment, FRTL-5 cells were grown to near confluency in 6H medium, then shifted to 5H medium without TSH for 6 days. The experiments were initiated by returning the cells to 6H medium to reinitiate the cell cycle. Cells were treated with 0.5 mM 5-phenylmethimazole (compound 10) and transfected or not with dsDNA or dsRNA. After 36 hours they were subjected to cell cycle analysis.

[6] = tested on: female NOD mice; conditions: cited from earlier work
[7] = tested on: female (NZBxNZW)F1 mice; conditions: cited from earlier work
[8] = tested on: MHC Class I and Class II gene expression; conditions: cited from earlier work
[9] = tested on: herpes simplex; conditions: cited from earlier work
[10] = tested on: vaccinia viruses; conditions: cited from earlier work
[11] = Control (no ds nucleic acid), FRTL-5 cells 6 days in 4 H medium without insulin or TSH
[12] = transfected with dsDNA, FRTL-5 cells 6 days in 4 H medium
[13] = transfected with dsRNA, FRTL-5 cells 6 days in 4 H medium

| Molecule | ability of dsDNA to increase MHC Class I, TAP-1, LMP2, MHC Class II, invariant chain, HLA-DM, and 90K gene expression [1] | dsDNA or dsRNA transfection efficiency [1] | cell cycle arrest ([5]; 36 hours) | percentage of cells in S + G2/M phase [5, 11] [%] | action of the ds nucleic acids on cell cycle progression [5] | effect of ds nucleic acids on growth [5] | percentage of cells in S + G2/M phase [5, 12] [%] | percentage of cells in S + G2/M phase [5, 13] [%] | activity as antimmune drug [8] | other results |
| --- | --- | --- | --- | --- | --- | --- | --- | --- | --- | --- |
| Cn1c(-c2ccccc2)c[nH]c1=S [Compound 10, 5-phenylmethimazole] | significantly decreases | does not affect | no such effect | 10.5 | inhibit | does not | 11.0 | 4.5 | most active | ability of dsDNA to increase MHC Class I, TAP-1, LMP2, MHC Class II, invariant chain, HLA-DM, and 90K gene expression ([1]; listed as compound 10): better than 5 mM MMI; ability of dsRNA to increase MHC Class I, TAP-1, LMP2, MHC Class II, invariant chain, HLA-DM, and 90K gene expression [1]: decreases; ability of dsRNA to increase MHC Class I, TAP-1, LMP2, MHC Class II, invariant chain, HLA-DM, and 90K gene expression ([1]; listed as compound 10): better than MMI; expression of MHC and antigen-presenting genes, coincident transfection and treatment ([1]; no pretreatment): resulted in suppression; effect on cells transfected with double strand DNA or RNA [2]: similarly effective; effect on cells transfected with double strand DNA or RNA [3]: similarly effective; effect on cells transfected with double strand DNA or RNA [4]: similarly effective; effect on ds nucleic acid effects on cell cycle ([5]; 5H then 6H medium, 0.5 mM compound 10, 36 hours): no effect; development of Diabetes [6]: suppress the development; development of systemic lupus erythematosus (SLE) [7]: suppress the development; potency relative to MMI [8]: 10- to 100 fold |
| Cn1cc[nH]c1=S [Methimazole, methimazole, reference compound] | INHIBIT | does not affect | arrest in the G2/M1 phase | 6.3 | inhibit | counteracts | 11.4 | 7.4 | – | – |
| 1,3-dimethyl-4-phenylimidazoline-2-thione | – | – | – | – | – | – | – | – | – | antiviral properties [9]: antiviral properties; antiviral properties [10]: antiviral properties |
| Sc1ncc[nH]1 [2-mercaptoimidazole, reference compound] | no effect | – | – | – | – | – | – | – | inactive | – |
